PubChem BioAssay AID248 (DTP/NCI, 2004)
Where “and” joins values, the source holds several entries; their conditions need not be identical. Identical values can stand only once. Inconclusive results and toxic doses are left out.

System: L1210 leukemia ip in BDF1 mice, survival T/C
Assay: NCI In Vivo Anticancer Drug Screen. Data for tumor model L1210 Leukemia (intraperitoneal) in B6D2F1 (BDF1) mice
Settings: endpoint: mean survival time, higher = longer survival
How it was run: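 Ratio derived from survival: compound-dosed mice over vehicle-dosed mice, all bearing a transplantable tumor.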

[1] = dose: 15.0 mg/kg/injection, schedule: Q01DX Z (ip), vehicle: carboxymethylcellulose (CMC)
[2] = dose: 30.0 mg/kg/injection, schedule: Q01DX Z (ip), vehicle: carboxymethylcellulose (CMC)
[3] = dose: 60.0 mg/kg/injection, schedule: Q01DX Z (ip), vehicle: carboxymethylcellulose (CMC)
[4] = dose: 120.0 mg/kg/injection, schedule: Q01DX Z (ip), vehicle: carboxymethylcellulose (CMC)
[5] = dose: 100.0 mg/kg/injection, schedule: Q01DX009 (ip), vehicle: Klucel (hydroxypropylcellulose) (HPC)
[6] = dose: 200.0 mg/kg/injection, schedule: Q01DX009 (ip), vehicle: Klucel (hydroxypropylcellulose) (HPC)

**Q.** For O=C(Nc1ccc(C2=NCCN2)cc1)c1cc(C(=O)Nc2ccc(C3=NCCN3)cc2)ncn1, which T/C (dose: 0.47 mg/kg/injection, schedule: Q01DX015 (ip), vehicle: methylcellulose (MC)) is on record?
**A.** 96 % of control

**Q.** What about the T/C (dose: 0.93 mg/kg/injection, schedule: Q01DX015 (ip), vehicle: methylcellulose (MC)) of the same compound?
**A.** 108 % of control

**Q.** What about the T/C (dose: 0.93 mg/kg/injection, schedule: Q01DX Z (ip), vehicle: carboxymethylcellulose (CMC)) of the same compound?
**A.** 94 % of control

**Q.** What about the T/C (dose: 1.87 mg/kg/injection, schedule: Q01DX015 (ip), vehicle: methylcellulose (MC)) of the same compound?
**A.** 100 % of control and 101 % of control

**Q.** What about the T/C (dose: 1.87 mg/kg/injection, schedule: Q01DX Z (ip), vehicle: carboxymethylcellulose (CMC)) of the same compound?
**A.** 120 % of control

**Q.** What about the T/C (dose: 3.75 mg/kg/injection, schedule: Q01DX015 (ip), vehicle: methylcellulose (MC)) of the same compound?
**A.** 102 % of control and 116 % of control

**Q.** And the T/C (dose: 6.25 mg/kg/injection, schedule: Q01DX001 (ip), vehicle: methylcellulose (MC))?
**A.** 112 % of control

**Q.** And the T/C (dose: 7.5 mg/kg/injection, schedule: Q01DX015 (ip), vehicle: methylcellulose (MC))?
**A.** 116 % of control and 118 % of control

**Q.** What about the T/C (dose: 12.5 mg/kg/injection, schedule: Q01DX001 (ip), vehicle: methylcellulose (MC)) of the same compound?
**A.** 108 % of control

**Q.** And the T/C (dose: 15.0 mg/kg/injection, schedule: Q01DX015 (ip), vehicle: other)?
**A.** 153 % of control

**Q.** What about the T/C [1] of the same compound?
**A.** 303 % of control

**Q.** What about the T/C (dose: 25.0 mg/kg/injection, schedule: Q01DX001 (ip), vehicle: methylcellulose (MC)) of the same compound?
**A.** 104 % of control

**Q.** What about the T/C (dose: 30.0 mg/kg/injection, schedule: Q01DX015 (ip), vehicle: methylcellulose (MC)) of the same compound?
**A.** 93 % of control

**Q.** What about the T/C (dose: 30.0 mg/kg/injection, schedule: Q01DX015 (ip), vehicle: other) of the same compound?
**A.** 241 % of control

**Q.** What about the T/C [2] of the same compound?
**A.** 224 % of control

**Q.** And the T/C (dose: 36.0 mg/kg/injection, schedule: Q01DX001 (ip), vehicle: carboxymethylcellulose (CMC))?
**A.** 118 % of control

**Q.** What about the T/C (dose: 36.0 mg/kg/injection, schedule: Q01DX001 (ip), vehicle: other) of the same compound?
**A.** 112 % of control

**Q.** And the T/C (dose: 50.0 mg/kg/injection, schedule: Q01DX001 (ip), vehicle: methylcellulose (MC))?
**A.** 122 % of control

**Q.** What about the T/C (dose: 53.0 mg/kg/injection, schedule: Q01DX001 (ip), vehicle: carboxymethylcellulose (CMC)) of the same compound?
**A.** 118 % of control

**Q.** And the T/C (dose: 53.0 mg/kg/injection, schedule: Q01DX001 (ip), vehicle: other)?
**A.** 121 % of control

**Q.** And the T/C (dose: 60.0 mg/kg/injection, schedule: Q01DX015 (ip), vehicle: other)?
**A.** 102 % of control

**Q.** And the T/C [3]?
**A.** 154 % of control

**Q.** What about the T/C (dose: 79.0 mg/kg/injection, schedule: Q01DX001 (ip), vehicle: carboxymethylcellulose (CMC)) of the same compound?
**A.** 124 % of control

**Q.** What about the T/C [4] of the same compound?
**A.** 121 % of control

**Q.** And the T/C (dose: 180.0 mg/kg/injection, schedule: Q01DX001 (ip), vehicle: carboxymethylcellulose (CMC))?
**A.** 157 % of control

**Q.** What about the T/C (dose: 180.0 mg/kg/injection, schedule: Q01DX001 (ip), vehicle: other) of the same compound?
**A.** 162 % of control

**Q.** And the T/C (dose: 270.0 mg/kg/injection, schedule: Q01DX001 (ip), vehicle: carboxymethylcellulose (CMC))?
**A.** 169 % of control

**Q.** And the T/C (dose: 405.0 mg/kg/injection, schedule: Q01DX001 (ip), vehicle: carboxymethylcellulose (CMC))?
**A.** 193 % of control

**Q.** CC(C)(C)C1CCC(=O)C(Cl)C1 (centres undefined) was tested. Which T/C [5] did it give?
**A.** 94 % of control

**Q.** What about the T/C (dose: 100.0 mg/kg/injection, schedule: Q04DX003 (ip), vehicle: alcohol) of the same compound?
**A.** 94 % of control

**Q.** What about the T/C [6] of the same compound?
**A.** 95 % of control

**Q.** And the T/C (dose: 200.0 mg/kg/injection, schedule: Q04DX003 (ip), vehicle: alcohol)?
**A.** 92 % of control

**Q.** What about the T/C (dose: 400.0 mg/kg/injection, schedule: Q04DX003 (ip), vehicle: alcohol) of the same compound?
**A.** 87 % of control

**Q.** For Nc1c(Br)cc2c(c1Br)Cc1cc(Br)ccc1-2, which T/C (dose: 200.0 mg/kg/injection, schedule: Q01DX Z (ip), vehicle: saline) is on record?
**A.** 109 % of control

**Q.** And the T/C (dose: 400.0 mg/kg/injection, schedule: Q01DX Z (ip), vehicle: saline)?
**A.** 107 % of control

**Q.** What about the T/C (dose: 800.0 mg/kg/injection, schedule: Q01DX Z (ip), vehicle: saline) of the same compound?
**A.** 112 % of control

**Q.** And the T/C (dose: 1600.0 mg/kg/injection, schedule: Q01DX Z (ip), vehicle: saline)?
**A.** 112 % of control

**Q.** How did the T/C [1] turn out when O=C(Nc1ccc(N=C(NC2CCCCC2)c2ccccc2)cc1)c1ccc(C(=O)Nc2ccc(N=C(NC3CCCCC3)c3ccccc3)cc2)cc1 was run?
**A.** 101 % of control

**Q.** And the T/C [2]?
**A.** 97 % of control

**Q.** What about the T/C [3] of the same compound?
**A.** 101 % of control

**Q.** What about the T/C [4] of the same compound?
**A.** 97 % of control

**Q.** How did the T/C [5] turn out when O=C(COc1ccc(Cl)cc1)Nc1cccc(C(F)(F)F)c1 was run?
**A.** 96 % of control

**Q.** And the T/C (dose: 100.0 mg/kg/injection, schedule: Q04DX003 (ip), vehicle: Klucel (hydroxypropylcellulose) (HPC))?
**A.** 102 % of control

**Q.** And the T/C [6]?
**A.** 89 % of control

**Q.** What about the T/C (dose: 200.0 mg/kg/injection, schedule: Q04DX003 (ip), vehicle: Klucel (hydroxypropylcellulose) (HPC)) of the same compound?
**A.** 93 % of control

**Q.** And the T/C (dose: 400.0 mg/kg/injection, schedule: Q01DX009 (ip), vehicle: Klucel (hydroxypropylcellulose) (HPC))?
**A.** 91 % of control

**Q.** And the T/C (dose: 400.0 mg/kg/injection, schedule: Q04DX003 (ip), vehicle: Klucel (hydroxypropylcellulose) (HPC))?
**A.** 93 % of control

**Q.** Cc1cccc(NC(=S)Nc2ccccc2)c1C was tested. Which T/C (dose: 100.0 mg/kg/injection, schedule: Q04DX002 (ip), vehicle: Klucel (hydroxypropylcellulose) (HPC)) did it give?
**A.** 94 % of control

**Q.** And the T/C (dose: 200.0 mg/kg/injection, schedule: Q04DX002 (ip), vehicle: Klucel (hydroxypropylcellulose) (HPC))?
**A.** 105 % of control

**Q.** And the T/C (dose: 400.0 mg/kg/injection, schedule: Q04DX002 (ip), vehicle: Klucel (hydroxypropylcellulose) (HPC))?
**A.** 101 % of control

**Q.** Which results are given for C=CCOC(=O)c1ccccc1N?
**A.** T/C (dose: 100.0 mg/kg/injection, schedule: Q01DX009 (ip), vehicle: saline with Tween-80): 98 % of control; T/C (dose: 100.0 mg/kg/injection, schedule: Q04DX003 (ip), vehicle: saline with Tween-80): 104 % of control; T/C (dose: 200.0 mg/kg/injection, schedule: Q01DX009 (ip), vehicle: saline with Tween-80): 98 % of control; T/C (dose: 200.0 mg/kg/injection, schedule: Q04DX003 (ip), vehicle: saline with Tween-80): 101 % of control
